One block for each molecule: values may come before it.
Tests used:
MCF7 cells [1] = assay: Live-cell imaging growth studies and EC50 for growth inhibition, MCF7; format: cell-based; conditions: Homo sapiens, read-out: Approximate Half-maximal Effective Concentration (EC50) for growth inhibition
Description: (§1) MCF7, T47D, T47D ESR1 Y537S or T47D ESR1 D538G cells were seeded at 2×10^5 density per well in 6-well tissue culture-treated plates in DMEM/F12/10% FBS (2 mL total volume). […] The plate was then placed in the Incucyte® S3 Live-Cell Analysis System and images were acquired every 4 hours for a total of 5 days (120 hours). Data were analyzed using the Incucyte® Software v2020C which quantified cell surface area coverage as confluence values. Relative growth was calculated for all timepoints for all growth conditions relative to the confluence value observed for the control at 120 hours. Graphing and statistical analyses were performed using Graphpad Prism (GraphPad Software).

MCF7 cells [2] = assay: Luminescence-based MCF7 cell proliferation assay, dose-response matrix; conditions: 5 days (120 hours)
Description: MCF7 cells were seeded at a density of 2×10^4 cells in 200 μL of media per well in 2 technical replicate, 96-well black, clear-bottom plates and incubated overnight at 37° C. in a 5% CO2 incubator. […] DMSO was used as the vehicle control. The plates were then incubated for 5 days at 37° C. in a 5% CO2 incubator.
The plates were equilibrated to room temperature for approximately 30 minutes. 50 μL of Cell-Titer Glo (Promega) was added to all wells of the plates, covered with aluminum foil and shaken gently by hand for less than 1 minute. The plates were then incubated for 10 minutes at room temperature. Luminescence was recorded using Envision Multi Label Reader. To assess cell viability, luminescence values for drug-treated wells were normalized to average luminescence of vehicle (DMSO) wells to obtain percent viability relative to control cells. The data were analyzed with the Combenefit software.

T47D cells = assay: Live-cell imaging growth studies and EC50 for growth inhibition, T47D; format: cell-based; conditions: Homo sapiens, read-out: Approximate Half-maximal Effective Concentration (EC50) for growth inhibition
Description: as §1

MCF7 xenograft [3] = assay: MCF7 orthotopic xenograft, combination with PI3K inhibitor alpelisib; format: in vivo, NOD/SCID mice
Description: (§2) NOD/SCID female mice (Charles River, 6-7 weeks old upon arrival) were implanted with 17b-estradiol 0.72 mg 90-day pellets. The next day, each mouse was implanted with 5×10^6 MCF7 cells/100 mL in the axial mammary fat pad. Compound administration was initiated once the tumors reached 175-200 mm^3. Diet was supplemented with peanut butter to help maintain body weights. Dosing holidays occurred on days 6, 7, 8 and 9 due to body weight loss in some animals in study arms 3 and 4. […] (FIG. 31 and Table 15).
Dosing holidays occurred on days 6, 7, 8 and 9. Error bars represent standard deviation.
(§3) The ratio of Tween 80 to PEG-400 is 0.02 g Tween 80 to 1 ml PEG-400. PEG-400 is added to a pre-aliquoted volume of Tween 80. • For alpelisib: 1% carboxymethylcellulose (CMC), 0.5% Tween 80/DI water (‘CMC/Tween’) Sampling: tumors were measured twice weekly. Terminal sacrifice was ˜18 hr after last dose. Tumor volume calculation: Tumor Volume=(width×width×length)/2, where all measurements are in mm and the tumor volume is in mm^3. Tumor Growth Inhibition (TGI) calculation: TGI (%)

T47D ESR1 Y537S cells = assay: Live-cell imaging growth studies and EC50 for growth inhibition, T47D ESR1 Y537S; format: cell-based; conditions: Homo sapiens, read-out: Approximate Half-maximal Effective Concentration (EC50) for growth inhibition
Description: as §1

T47D ESR1 D538G cells = assay: Live-cell imaging growth studies and EC50 for growth inhibition, T47D ESR1 D538G; format: cell-based; conditions: Homo sapiens; T47D ESR1 D537G (so in the source); read-out: Approximate Half-maximal Effective Concentration (EC50) for growth inhibition
Description: as §1

MCF7 xenograft [4] = assay: MCF7 orthotopic xenograft, combination with mTOR inhibitor everolimus; format: in vivo, NOD/SCID mice
Description: as §2, with “[…] per” for “mL”, “weights.” for “weights. Dosing holidays occurred on days 6, 7, 8 and 9 due to body weight loss in some animals in study arms 3 and 4.”, “28” for “31”, “13).” for “15).”
Error bars represent standard deviation.
as §3, with “everolimus: 10% DMSO, 90% (2%” for “alpelisib: 1% carboxymethylcellulose (CMC), 0.5%”, “80, PEG 400) (DMSO/PEG/Tween)” for “80/DI water (‘CMC/Tween’)”

[5] = tested on: tamoxifen-resistant MCF7 xenografts; assay: Tamoxifen-resistant MCF7 orthotopic xenograft tumor growth inhibition; format: in vivo, Nu/Nu mice
Description: Species: Ovariectomized Nu/Nu female mice. Animal handling: Axial mammary fat pad implantation of tamoxifen-resistant tumor fragment (from E45 passage. SC per mouse. Tamoxifen pellet (5 mg, 60-day release) was implanted under the same anesthesia as tumor fragment (pellet—dorsal; tumor—ventral).
Dosing: Oral (gavage), once a day for 28 days (QD×28)
(§4) Sampling: Tumors were measured twice weekly. Terminal sacrifice was ˜18 hr after last dose; tumors were harvested, divided, and flash frozen. ERα levels were determined by immunoblotting (see Appendix 1 for details).

ERα = biological target: T1, ERα (Homo sapiens, UniProt P03372); assay: ERα levels in tamoxifen-resistant MCF7 xenografts (immunoblot); format: in vivo, Nu/Nu mice; conditions: tamoxifen-resistant MCF7, palbociclib alone 60 mg/kg
T1 construct: robustly degrades ER in ER-positive breast cancer cell lines; endogenous in cells; host or cells: MCF7, T47D (cell culture); MCF7 and tamoxifen-resistant MCF7 xenograft tumours in mice
T1 sequence (P03372 1-595): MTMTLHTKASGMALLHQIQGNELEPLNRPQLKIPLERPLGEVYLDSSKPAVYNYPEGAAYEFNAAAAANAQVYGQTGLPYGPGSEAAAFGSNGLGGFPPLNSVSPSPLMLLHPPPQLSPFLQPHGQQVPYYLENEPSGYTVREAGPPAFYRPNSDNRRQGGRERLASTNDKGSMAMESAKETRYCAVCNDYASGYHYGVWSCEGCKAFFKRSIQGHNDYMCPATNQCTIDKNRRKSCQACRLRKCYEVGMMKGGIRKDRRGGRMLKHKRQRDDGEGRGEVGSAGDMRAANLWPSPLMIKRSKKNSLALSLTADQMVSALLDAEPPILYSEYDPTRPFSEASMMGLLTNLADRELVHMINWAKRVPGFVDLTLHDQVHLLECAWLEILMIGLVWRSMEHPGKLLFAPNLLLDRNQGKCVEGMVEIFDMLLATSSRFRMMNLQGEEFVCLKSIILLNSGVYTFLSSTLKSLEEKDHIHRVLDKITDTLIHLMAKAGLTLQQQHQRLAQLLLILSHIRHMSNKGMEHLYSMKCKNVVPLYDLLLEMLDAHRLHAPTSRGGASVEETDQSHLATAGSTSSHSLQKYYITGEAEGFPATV
Description: At study termination, the tumors were removed from the mice, and ERα levels were determined by immunoblotting the tumor homogenates. […] ERα levels from the various compound arms were compared to vehicle-treated animals by analyzing the tumor lysates on separate immunoblots (graphs in FIG. 10, FIG. 11, and FIG. 12 depict data from individual immunoblots) and the average ERα levels with standard deviation is shown.
as §4
Flash frozen tumors were removed from −80° C. storage and placed on dry ice. RIPA lysis buffer and Halt protease inhibitors were used at 400 μl per tumor sample. A steel ball (5 mm) was placed in each sample for tissue disruption. Samples were lysed with TissueLyzer at 24 Hz for 4 minutes. The homogenization was stopped half way through the process and the block flipped over for the duration of the process. […] Lysates were then measured for total protein concentration by BCA (per manufacturer's protocol). […]
Protein was transferred from gels to nitrocellulose with Bio-Rad Turbo on default setting. […] The blots were cut so that beta-actin and ERα can be detected from the same lane/sample. […]

[6] = alpelisib 25 mg/kg oral QD x 19
[7] = everolimus 2.5 mg/kg oral QD x 26
[8] = palbociclib 60 mg/kg oral QD x 28

SMILES: CCN1CCN(Cc2ccc(Nc3ncc(F)c(-c4cc(F)c5nc(C)n(C(C)C)c5c4)n3)nc2)CC1 [Abemaciclib]
EC50 (MCF7 cells [1]): 40 nM

SMILES: Cc1nc(NC(=O)N2CCC[C@H]2C(N)=O)sc1-c1ccnc(C(C)(C)C(F)(F)F)c1 [Alpelisib, reference compound]
MCF7 cell proliferation, single agent (MCF7 cells [2]): dose-dependent decrease | EC50 (MCF7 cells [1]): 100 nM | EC50 (T47D cells): 100 nM | Day 19 Tumor Volume (mean ± SD) (MCF7 xenograft [3]; [6]): 281 ± 37 mm^3 | TGI (% vehicle) (MCF7 xenograft [3]; [6]): 74 % vehicle | tumor growth inhibition (TGI) (MCF7 xenograft [3]; alpelisib 25 mg/kg oral once daily, 19 days, dosing holidays days 6-9): 74%

SMILES: CO[C@H]1C[C@@H]2CC[C@@H](C)[C@@](O)(O2)C(=O)C(=O)N2CCCC[C@H]2C(=O)O[C@H]([C@H](C)C[C@@H]2CC[C@@H](OCCO)[C@H](OC)C2)CC(=O)[C@H](C)/C=C(\C)[C@@H](O)[C@@H](OC)C(=O)[C@H](C)C[C@H](C)/C=C/C=C/C=C/1C [Everolimus, reference compound]
MCF7 cell proliferation, single agent (MCF7 cells [2]): dose-dependent decrease | EC50 (MCF7 cells [1]): 10 nM | EC50 (T47D cells): 100 nM | EC50 (T47D ESR1 Y537S cells): 10 nM | EC50 (T47D ESR1 D538G cells): 10 nM | Day 26 Tumor Volume (mean ± SD) (MCF7 xenograft [4]; [7]): 252 ± 50 mm^3 | TGI (% vehicle) (MCF7 xenograft [4]; [7]): 89 % vehicle | tumor growth inhibition (TGI) (MCF7 xenograft [4]; everolimus 2.5 mg/kg oral once daily, 26 days): 89%

SMILES: C[C@H](Nc1ccc2c(c1)OCCn1cc(N3C(=O)OC[C@H]3C(F)F)nc1-2)C(N)=O [GDC-0077]
MCF7 cell proliferation, single agent (MCF7 cells [2]): dose-dependent decrease | EC50 (MCF7 cells [1]): 40 nM | EC50 (T47D cells): 30 nM

Second part, led by results:

effect on tumor ERα levels (ERα): did not reduce
SMILES: CC(=O)c1c(C)c2cnc(Nc3ccc(N4CCNCC4)cn3)nc2n(C2CCCC2)c1=O [Palbociclib, 6-acetyl-8-cyclopentyl-5-methyl-2-{[5-(piperazin-1-yl)pyridin-2-yl]amino}pyrido[2,3-d]pyrimidin-7(8H)-one, reference compound]
Day 28 Tumor volume (mean ± SD) [5, 8]: 222 ± 139 mm^3 | TGI (% vehicle) [5, 8]: 91 % vehicle | tumor growth inhibition (TGI) ([5]; tamoxifen-resistant MCF7, palbociclib 60 mg/kg/day oral, 28 days): 91%

EC50 (MCF7 cells [1]): 10000 nM
SMILES: CC1(C)CCC(CN2CCN(c3ccc(C(=O)NS(=O)(=O)c4ccc(NCC5CCOCC5)c([N+](=O)[O-])c4)c(Oc4cnc5[nH]ccc5c4)c3)CC2)=C(c2ccc(Cl)cc2)C1 [Venetoclax]

From US20220193072A1, “METHODS OF TREATING BREAST CANCER WITH TETRAHYDRONAPHTHALENE DERIVATIVES AS ESTROGEN RECEPTOR DEGRADER” (Arvinas Operations, Inc., priority 2020, published 2022)
